Like-named read-outs stand apart in the source and are kept apart here.
Key:
Type in all cases: binding
[1] = molecular target: T1, HeLa cell extract proteins (Homo sapiens, UniProt O00746)
T1 construct: endogenous in cells; host or cells: HeLa cell extract
T1 sequence (O00746 29-187): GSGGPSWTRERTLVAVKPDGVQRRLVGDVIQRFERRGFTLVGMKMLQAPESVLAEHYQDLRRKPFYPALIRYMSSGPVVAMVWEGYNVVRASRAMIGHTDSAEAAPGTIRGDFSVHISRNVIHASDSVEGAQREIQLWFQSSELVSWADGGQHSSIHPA

[2] = molecular target: T2, HeLa cell extract proteins (Homo sapiens, UniProt O15269)
T2 construct: endogenous in cells; host or cells: HeLa cell extract
T2 sequence (O15269 1-473): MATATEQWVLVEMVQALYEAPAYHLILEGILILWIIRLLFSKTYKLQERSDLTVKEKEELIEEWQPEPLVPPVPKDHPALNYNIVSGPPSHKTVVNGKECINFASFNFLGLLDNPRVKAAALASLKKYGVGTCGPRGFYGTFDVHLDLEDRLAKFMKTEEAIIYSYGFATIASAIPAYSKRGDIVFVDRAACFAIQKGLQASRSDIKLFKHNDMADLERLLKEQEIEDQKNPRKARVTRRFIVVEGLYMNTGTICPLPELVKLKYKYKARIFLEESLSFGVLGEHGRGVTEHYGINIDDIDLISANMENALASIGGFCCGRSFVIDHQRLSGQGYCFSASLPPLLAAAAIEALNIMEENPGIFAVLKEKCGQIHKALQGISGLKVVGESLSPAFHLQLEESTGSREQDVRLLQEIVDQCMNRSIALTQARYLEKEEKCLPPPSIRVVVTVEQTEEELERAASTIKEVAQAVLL

[3] = molecular target: T3, HeLa cell extract proteins (Homo sapiens, UniProt P00403)
T3 construct: endogenous in cells; host or cells: HeLa cell extract

[4] = molecular target: T4, HeLa cell extract proteins (Homo sapiens, UniProt P07195)
T4 construct: endogenous in cells; host or cells: HeLa cell extract

[5] = molecular target: T5, HeLa cell extract proteins (Homo sapiens, UniProt P30084)
T5 construct: endogenous in cells; host or cells: HeLa cell extract
T5 sequence (P30084 28-290): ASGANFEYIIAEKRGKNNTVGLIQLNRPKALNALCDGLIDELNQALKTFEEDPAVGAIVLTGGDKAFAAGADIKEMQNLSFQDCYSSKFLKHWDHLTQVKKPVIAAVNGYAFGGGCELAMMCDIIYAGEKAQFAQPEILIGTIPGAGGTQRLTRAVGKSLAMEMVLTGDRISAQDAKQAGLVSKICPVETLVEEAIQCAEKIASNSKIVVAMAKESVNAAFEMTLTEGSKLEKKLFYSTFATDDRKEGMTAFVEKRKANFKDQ

[6] = molecular target: T6, HeLa cell extract proteins (Homo sapiens, UniProt P61619)
T6 construct: endogenous in cells; host or cells: HeLa cell extract

[7] = molecular target: T7, HeLa cell extract proteins (Homo sapiens, UniProt Q16881)
T7 construct: endogenous in cells; host or cells: HeLa cell extract
T7 sequence (Q16881 1-649): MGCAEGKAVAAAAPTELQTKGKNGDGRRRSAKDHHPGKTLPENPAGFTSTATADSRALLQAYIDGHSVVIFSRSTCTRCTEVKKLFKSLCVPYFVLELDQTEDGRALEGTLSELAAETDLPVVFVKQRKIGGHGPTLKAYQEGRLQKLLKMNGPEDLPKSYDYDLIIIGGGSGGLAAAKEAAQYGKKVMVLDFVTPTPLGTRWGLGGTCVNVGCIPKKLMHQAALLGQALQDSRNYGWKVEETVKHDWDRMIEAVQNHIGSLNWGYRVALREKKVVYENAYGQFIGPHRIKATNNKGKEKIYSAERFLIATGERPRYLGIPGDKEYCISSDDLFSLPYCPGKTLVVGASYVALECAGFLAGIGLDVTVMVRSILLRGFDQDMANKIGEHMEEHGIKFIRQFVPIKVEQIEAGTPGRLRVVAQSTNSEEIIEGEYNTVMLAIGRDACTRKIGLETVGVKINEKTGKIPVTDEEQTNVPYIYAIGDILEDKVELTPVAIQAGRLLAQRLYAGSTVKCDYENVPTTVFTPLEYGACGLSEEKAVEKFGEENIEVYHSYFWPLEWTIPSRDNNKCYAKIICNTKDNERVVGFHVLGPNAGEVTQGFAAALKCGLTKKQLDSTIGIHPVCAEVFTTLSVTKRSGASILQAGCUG

[8] = molecular target: T8, HeLa cell extract proteins (Homo sapiens, UniProt Q8NCG7)
T8 construct: endogenous in cells; host or cells: HeLa cell extract
T8 sequence (Q8NCG7 1-672): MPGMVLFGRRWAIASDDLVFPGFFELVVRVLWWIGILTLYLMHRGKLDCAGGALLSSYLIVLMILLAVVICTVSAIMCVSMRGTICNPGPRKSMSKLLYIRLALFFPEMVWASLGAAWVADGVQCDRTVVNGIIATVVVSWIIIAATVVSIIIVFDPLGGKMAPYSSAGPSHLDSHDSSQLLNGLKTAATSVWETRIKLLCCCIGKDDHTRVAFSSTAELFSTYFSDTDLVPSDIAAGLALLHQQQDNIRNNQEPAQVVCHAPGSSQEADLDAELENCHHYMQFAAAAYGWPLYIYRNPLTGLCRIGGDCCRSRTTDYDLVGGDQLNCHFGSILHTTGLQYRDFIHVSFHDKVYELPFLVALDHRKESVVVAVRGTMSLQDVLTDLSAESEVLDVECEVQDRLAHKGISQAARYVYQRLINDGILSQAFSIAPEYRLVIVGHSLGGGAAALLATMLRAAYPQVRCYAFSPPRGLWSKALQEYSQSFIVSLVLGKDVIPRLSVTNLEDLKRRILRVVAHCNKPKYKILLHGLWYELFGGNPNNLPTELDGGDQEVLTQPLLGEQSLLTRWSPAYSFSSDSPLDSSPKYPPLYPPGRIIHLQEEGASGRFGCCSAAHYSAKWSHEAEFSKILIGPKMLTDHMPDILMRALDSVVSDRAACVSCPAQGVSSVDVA

[9] = molecular target: T9, HeLa cell extract proteins (Homo sapiens, UniProt Q9H773)
T9 construct: endogenous in cells; host or cells: HeLa cell extract
T9 sequence (Q9H773 1-170): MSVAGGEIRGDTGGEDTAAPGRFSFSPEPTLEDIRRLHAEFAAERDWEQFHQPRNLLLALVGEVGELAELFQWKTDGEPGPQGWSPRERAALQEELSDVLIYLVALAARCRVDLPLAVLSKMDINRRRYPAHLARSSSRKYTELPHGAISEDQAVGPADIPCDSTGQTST

[10] = HeLa, protein LDHB (L-LACTATE DEH[…] CHAIN.)
[11] = HeLa, protein XTP3TPA (XTP3-TRAN[…] A PROTEIN)

T4 sequence (P07195 whole entry): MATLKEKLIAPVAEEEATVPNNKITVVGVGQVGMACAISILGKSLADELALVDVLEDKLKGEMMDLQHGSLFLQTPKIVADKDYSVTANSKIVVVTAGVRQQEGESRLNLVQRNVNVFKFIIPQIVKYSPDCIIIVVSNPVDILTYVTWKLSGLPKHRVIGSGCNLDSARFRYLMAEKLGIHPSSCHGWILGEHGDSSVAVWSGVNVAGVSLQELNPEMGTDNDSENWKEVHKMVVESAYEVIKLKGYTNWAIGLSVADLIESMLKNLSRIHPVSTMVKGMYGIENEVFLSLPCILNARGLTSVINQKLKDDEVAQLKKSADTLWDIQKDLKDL
T3 sequence (P00403 whole entry): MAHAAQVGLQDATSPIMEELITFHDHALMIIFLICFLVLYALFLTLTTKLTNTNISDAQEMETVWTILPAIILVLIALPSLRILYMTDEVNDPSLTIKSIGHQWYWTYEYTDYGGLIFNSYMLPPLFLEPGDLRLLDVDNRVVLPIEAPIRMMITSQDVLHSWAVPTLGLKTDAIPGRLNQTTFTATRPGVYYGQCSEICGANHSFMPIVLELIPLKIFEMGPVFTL
T6 sequence (P61619 whole entry): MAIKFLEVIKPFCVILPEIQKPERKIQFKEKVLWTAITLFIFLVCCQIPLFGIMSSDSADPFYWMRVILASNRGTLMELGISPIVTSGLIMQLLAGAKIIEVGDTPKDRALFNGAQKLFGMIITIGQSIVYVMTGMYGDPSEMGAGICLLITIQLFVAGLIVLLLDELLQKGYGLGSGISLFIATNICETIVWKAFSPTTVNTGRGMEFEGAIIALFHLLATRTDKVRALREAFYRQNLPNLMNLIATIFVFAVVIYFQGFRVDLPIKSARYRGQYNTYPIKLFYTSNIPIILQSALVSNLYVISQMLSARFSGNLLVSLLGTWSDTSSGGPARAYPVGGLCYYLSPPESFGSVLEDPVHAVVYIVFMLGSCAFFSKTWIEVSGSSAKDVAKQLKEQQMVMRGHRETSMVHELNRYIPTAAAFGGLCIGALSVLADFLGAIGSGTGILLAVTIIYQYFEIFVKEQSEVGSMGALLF

Row | Compound | fold changes relative to vehicle control ([1]; HeLa, protein NME4) | fold changes relative to vehicle control ([2]; captured protein SPTLC1, HeLa) | fold changes relative to vehicle control ([3]; captured protein COX2, HeLa) | fold changes relative to vehicle control ([5]; protein ECHS1, HeLa) | fold changes relative to vehicle control ([6]; HeLa, protein SEC61A1) | fold changes relative to vehicle control ([7]; protein TXNRD1, HeLa) | fold changes relative to vehicle control ([8]; captured protein DAGLB, HeLa) | fold changes relative to vehicle control ([9]; captured protein XTP3TPA, HeLa) | fold changes relative to vehicle control ([2]; HeLa, protein SPTLC1) | fold changes relative to vehicle control ([3]; protein COX2, HeLa) | fold changes relative to vehicle control ([4]; HeLa, captured protein LDHB) | fold changes relative to vehicle control ([5]; HeLa, captured protein ECHS1) | fold changes relative to vehicle control ([7]; HeLa, captured protein TXNRD1) | fold changes relative to vehicle control ([8]; HeLa, protein DAGLB) | further results
1 | Nc1nc2cccc(-c3ccccc3)c2n1Cc1ccc(Cl)c(Cl)c1 [compound 3] | 0.96 | 1.09 | 1.14 | 0.91 | 1 | 1.05 | 0.97 | 1.14 | – | – | – | – | – | – | fold changes relative to vehicle control [4, 10]: 0.94 fold
2 | CCCCCCOc1ccc(Cc2cnc(N)nc2N)cc1 [compound 1] | 0.97 | 0.8 | 0.99 | 0.98 | 1.02 | 1.27 | 1.02 | 0.91 | – | – | – | – | – | – | fold changes relative to vehicle control [4, 10]: 1.75 fold
3 | NCCCNc1ccc(C(=O)NC(CCC(=O)O)C(=O)O)cc1 (stereo not drawn) [compound 7] | 0.98 | – | – | – | 1.06 | – | – | – | 1.03 | 1.27 | 0.96 | 0.91 | 1.11 | 1.04 | fold changes relative to vehicle control [9, 11]: 1.21
4 | CCCCCCOc1cccc(Cc2cnc(N)nc2N)c1 [compound 2] | 0.92 | 1.03 | 0.95 | 0.92 | 1.01 | 1.44 | 1.07 | 0.73 | – | – | – | – | – | – | fold changes relative to vehicle control ([4]; HeLa, protein LDHB (L-LACTATE DEHYDROGENASE B CHAIN.)): 2.97 fold
5 | NCCOCCOCC(=O)Nc1nc2ncc(CNc3ccc(C(=O)NC(CCC(=O)O)C(=O)O)cc3)nc2c(=O)[nH]1 (stereo not drawn) [compound 6] | 0.81 | – | – | – | 1.03 | – | – | – | 0.95 | 1.33 | 1.42 | 0.76 | 1.16 | 1.07 | fold changes relative to vehicle control ([9]; HeLa, protein XTP3TPA (XTP3-TRANSACTIVATED GENE A PROTEIN)): 0.51
6 | Nc1nc2[nH]cc(CCc3ccc(C(=O)N[C@@H](CCC(=O)O)C(=O)O)cc3)c2c(=O)[nH]1 [PTX, pemetrexed] | – | – | – | – | – | – | – | – | – | – | – | – | – | – | fold changes relative to vehicle control [1]: 0.81; fold changes relative to vehicle control [2]: 0.95; fold changes relative to vehicle control [3]: 1.24; fold changes relative to vehicle control [4]: 1.35; fold changes relative to vehicle control [5]: 0.98; fold changes relative to vehicle control [6]: 0.98; fold changes relative to vehicle control [7]: 1.16; fold changes relative to vehicle control [8]: 0.88; fold changes relative to vehicle control [9]: 1.09
7 | Nc1nc2c(c(=O)[nH]1)N(C=O)C(CNc1ccc(C(=O)N[C@@H](CCC(=O)O)C(=O)O)cc1)CN2 (stereo partly drawn) [LEU, leucovorin] | 1.04 | – | – | – | 0.99 | – | – | – | 0.9 | 1.05 | 1.21 | 0.89 | 1.18 | 1.01 | fold changes relative to vehicle control [9, 11]: 1.14

From paper PMC6199744, “Development of Chemical Proteomics for the Folateome and Analysis of the Kinetoplastid Folateome” (ACS Infectious Diseases, 2018)
